{
  "source": "paper PMC11818871",
  "about": "“Identification of Fungal Metabolite Gliotoxin as a Potent Inhibitor Against Bacterial O-Acetylserine Sulfhydrylase CysK and CysM” (International Journal of Molecular Sciences, 2025)",
  "key": {"[1]": {"target": "CysK (O-acetylserine sulfhydrylase) (Salmonella enterica, UniProt P0A1E3)", "sequence (P0A1E3 2-323)": "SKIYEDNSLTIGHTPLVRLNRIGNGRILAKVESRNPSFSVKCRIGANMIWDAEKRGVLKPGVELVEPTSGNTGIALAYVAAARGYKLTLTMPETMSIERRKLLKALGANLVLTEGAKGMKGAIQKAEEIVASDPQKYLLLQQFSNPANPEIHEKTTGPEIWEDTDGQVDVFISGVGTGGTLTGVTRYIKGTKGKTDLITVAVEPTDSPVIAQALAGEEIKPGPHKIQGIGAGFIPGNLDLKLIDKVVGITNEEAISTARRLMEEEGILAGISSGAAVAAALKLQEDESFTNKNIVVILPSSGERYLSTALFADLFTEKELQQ", "assay": "recombinant enzyme, H2S consumption by HSip-1 fluorescence; confirmed by LC-MS/MS of cysteine production", "format": "biochemical"}, "[2]": {"target": "CysM (O-acetylserine sulfhydrylase) (Salmonella enterica, UniProt P29848)", "sequence (P29848 whole entry)": "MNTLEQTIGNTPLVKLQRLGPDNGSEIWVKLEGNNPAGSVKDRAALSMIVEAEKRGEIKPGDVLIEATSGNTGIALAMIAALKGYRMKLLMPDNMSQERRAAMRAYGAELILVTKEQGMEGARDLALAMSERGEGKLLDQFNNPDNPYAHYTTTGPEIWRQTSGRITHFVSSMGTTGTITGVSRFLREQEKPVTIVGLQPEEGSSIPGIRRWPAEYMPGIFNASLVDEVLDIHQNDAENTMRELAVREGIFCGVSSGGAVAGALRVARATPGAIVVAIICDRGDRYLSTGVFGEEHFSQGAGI", "assay": "recombinant enzyme, H2S consumption by HSip-1 fluorescence; confirmed by LC-MS/MS of cysteine production", "format": "biochemical"}},
  "data": [
    {"smiles": "CN1C(=O)[C@]23CC4=CC=C[C@H](O)[C@H]4N2C(=O)[C@@]1(CO)SS3", "note": "[compound 1, gliotoxin]", "values": [
      {"measurement": "IC50", "setting": "[1]", "value": "~3", "unit": "µM"},
      {"measurement": "IC50", "setting": "[2]", "value": "~3", "unit": "µM"}
    ]}
  ]
}
